Data on 36 compounds can be found in patent US20170121344A1 (Siga Technologies, Inc., priority 2009, published 2017).

Broadly, the EC50 is the concentration giving half of the maximal effect.

The experiment has as its system Dengue-2 (Strain New Guinea C). The experiment can be described thus: Viral yield assay against Dengue-2 in Vero cells. It counts as cell-based, Dengue virus. The settings on record: Dengue virus, read-out: Activity (EC50 class) against Dengue-2 Virus in Vero cells. In short, it runs like this:
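Infect Vero cells with virus (MOI 0.1), add compound or DMSO, incubate at 37° C, collect progeny at 48 hours post infection, then titrate on Vero cells to obtain EC50.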

The mark [1] stands for this setting: Vero cells, MOI 0.1, harvested 48 hours post infection.

Where two headings read alike, the source gives them in different places. Where only a bound is given, the exact number is not on record here.

For `COCc1cc(C)nc2sc(C(=O)Nc3ccccc3Cl)c(N)c12` [Compound 185, 3-Amino-4-methoxymethyl-6-methyl-thieno[2,3-b]pyridine-2-carboxylic acid (2-chloro-phenyl)-amide], the EC50 under setting [1] was more than 25 µM. For `Cc1cc(C)c2c(N)c(C(=O)Nc3cc(C(F)(F)F)ccc3Cl)sc2n1` [Compound 186, 3-Amino-4,6-dimethyl-thieno[2,3-b]pyridine-2-carboxylic acid (2-chloro-5-trifluoromethyl-phenyl)-amide], under setting [1], the EC50 was more than 25 µM. `Nc1c(C(=O)N2CCOCC2)sc2nc3c(cc12)CCCC3` [Compound 187, (3-Amino-5,6,7,8-tetrahydro-thieno[2,3-b]quinolin-2-yl)-morpholin-4-yl-methanone]: the EC50 (Vero, 48 h) is more than 25 µM. As to `Nc1c(C(=O)N2CCCCC2)sc2nc3c(cc12)CCC3` [Compound 188, (3-Amino-6,7-dihydro-5H-cyclopenta[b]thieno[3,2-e]pyridin-2-yl)-piperidin-1-yl-methanone], the EC50 under setting [1] was more than 25 µM.

Take `Nc1c(C(=O)N2CCCCC2)sc2nc(-c3cccs3)cc(C(F)(F)F)c12` [Compound 189, (3-Amino-6-thiophen-2-yl-4-trifluoromethyl-thieno[2,3-b]pyridin-2-yl)-piperidin-1-yl-methanone]: under setting [1], the EC50 is more than 25 µM. On the same count and under the same terms, in the case of `CCc1nnc(NC(=O)c2sc3nc4c(cc3c2N)CCC4)s1` [Compound 190, 3-Amino-6,7-dihydro-5H-cyclopenta[b]thieno[3,2-e]pyridine-2-carboxylic acid (5-ethyl-[1,3,4]thiadiazol-2-yl)-amide] it was more than 25 µM; in that of `Nc1c(C(=O)N2CCCCC2)sc2nc3c(cc12)CCCCC3` [Compound 191, (3-Amino-6,7,8,9-tetrahydro-5H-1-thia-10-aza-cyclohepta[f]inden-2-yl)-piperidin-1-yl-methanone], more than 25 µM; in that of `Nc1c(C(=O)Nc2nccs2)sc2nc(-c3ccccc3)cc(C(F)(F)F)c12` [Compound 192, 3-Amino-6-phenyl-4-trifluoromethyl-thieno[2,3-b]pyridine-2-carboxylic acid thiazol-2-ylamide], more than 25 µM.

For the compound `Nc1c(C(=O)Nc2cc(C(F)(F)F)ccc2Cl)sc2nc3c(cc12)CCCC3` [Compound 193, 3-Amino-5,6,7,8-tetrahydro-thieno[2,3-b]quinoline-2-carboxylic acid (2-chloro-5-trifluoromethyl-phenyl)-amide], the EC50 under setting [1] is more than 25 µM.

In the case of `CCc1nnc(NC(=O)c2sc3nc(-c4ccccc4)cc(C(F)(F)F)c3c2N)s1` [Compound 194, 3-Amino-6-phenyl-4-trifluoromethyl-thieno[2,3-b]pyridine-2-carboxylic acid (5-ethyl-[1,3,4]thiadiazol-2-yl)-amide], under setting [1], the EC50 was more than 25 µM.

Consider `NC(=O)c1sc2nc3c(c(-c4cccs4)c2c1N)CCCC3` [Compound 195, 3-Amino-4-thiophen-2-yl-5,6,7,8-tetrahydro-thieno[2,3-b]quinoline-2-carboxylic acid amide], for which the EC50 under setting [1] is more than 25 µM.

Consider `CCN(CC)C(=O)c1sc2nc(-c3ccccc3)cc(C(F)(F)F)c2c1N` [Compound 196, 3-Amino-6-phenyl-4-trifluoromethyl-thieno[2,3-b]pyridine-2-carboxylic acid diethylamide], for which, under setting [1], the EC50 is more than 25 µM. For `COCc1cc(C)nc2sc(C(=O)Nc3ccc(Br)c(Cl)c3)c(N)c12` [Compound 197, 3-Amino-4-methoxymethyl-6-methyl-thieno[2,3-b]pyridine-2-carboxylic acid (4-bromo-3-chloro-phenyl)-amide], where the note is “Vero, 48 h”, the EC50 was more than 25 µM. In the case of `Cc1cc(C)c2c(n1)sc1c(=O)n(-c3cccc(C(F)(F)F)c3)cnc12` [Compound 198, 7,9-Dimethyl-3-(3-trifluoromethyl-phenyl)-3H-pyrido[3′,2′:4,5]thieno[3,2-d]pyrimidin-4-one], the EC50 under setting [1] is more than 25 µM. The same measure, in the same setting: the same measure for `Cc1cc(C)c2c(N)c(C(=O)NCC(=O)O)sc2n1` [Compound 199, [(3-Amino-4,6-dimethyl-thieno[2,3-b]pyridine-2-carbonyl)-amino]-acetic acid]: more than 25 µM. Regarding `Cc1cc(C)c2c(N)c(C(=O)Nc3ccc(F)c(Cl)c3)sc2n1` [Compound 200, 3-Amino-4,6-dimethyl-thieno[2,3-b]pyridine-2-carboxylic acid (3-chloro-4-fluoro-phenyl)-amide], where the note is “Vero, 48 h”, the 50% effective concentration (EC50) was more than 25 µM. `Cn1cnc2c(sc3nc4c(cc32)COC(C)(C)C4)c1=O` [Compound 201, 2,8,8-Trimethyl-8,9-dihydro-2H,6H-7-oxa-11-thia-2,4,10-triaza-benzo[b]fluoren-1-one]: the EC50 (Vero, 48 h) is more than 25 µM.

For the compound `C=CCn1cnc2c(sc3nc4c(cc32)COC(C)(C)C4)c1=O` [Compound 202, 2-Allyl-8,8-dimethyl-8,9-dihydro-2H,6H-7-oxa-11-thia-2,4,10-triaza-benzo[b]fluoren-1-one], the EC50 under setting [1] was more than 25 µM. Regarding `C=C(C)Cn1cnc2c(sc3nc4c(cc32)COC(C)(C)C4)c1=O` [Compound 203, 8,8-Dimethyl-2-(2-methyl-allyl)-8,9-dihydro-2H,6H-7-oxa-11-thia-2,4,10-triaza-benzo[b]fluoren-1-one], the EC50 under setting [1] was more than 25 µM. On to `CC(=O)Nc1ccc(NC(=O)c2sc3nc4c(cc3c2N)CCCC4)cc1` [Compound 204, 3-Amino-5,6,7,8-tetrahydro-thieno[2,3-b]quinoline-2-carboxylic acid (4-acetylamino-phenyl)-amide], for which the EC50 under setting [1] was more than 25 µM.

In the case of `Nc1c(C(=O)NCCc2ccccc2)sc2nc3c(cc12)CCCCC3` [Compound 205, 3-Amino-6,7,8,9-tetrahydro-5H-1-thia-10-aza-cyclohepta[f]indene-2-carboxylic acid phenethyl-amide], the EC50 under setting [1] was more than 25 µM. As for `CC(C)Cc1ccc2c(N)c(C(=O)Nc3ccccc3)sc2n1` [Compound 206, 3-Amino-6-isobutyl-thieno[2,3-b]pyridine-2-carboxylic acid phenylamide], the EC50 (Vero, 48 h) was more than 25 µM.

With `Nc1c(C(=O)N(c2ccccc2)c2ccccc2)sc2nc3c(cc12)CCC3` [Compound 207, 3-Amino-6,7-dihydro-5H-cyclopenta[b]thieno[3,2-e]pyridine-2-carboxylic acid diphenylamide], under setting [1], the EC50 was more than 25 µM.

On to `CCc1c2c(nc3sc(C(=O)N4CCOCC4)c(N)c13)CC(C)(C)CC2=O` [Compound 208, 3-Amino-4-ethyl-7,7-dimethyl-2-(morpholine-4-carbonyl)-7,8-dihydro-6H-thieno[2,3-b]quinolin-5-one], for which the EC50 under setting [1] is more than 25 µM. Turning to `COCc1cc(C)nc2sc(C(=O)NCc3ccco3)c(N)c12` [Compound 209, 3-Amino-4-methoxymethyl-6-methyl-thieno[2,3-b]pyridine-2-carboxylic acid (furan-2-ylmethyl)-amide], the EC50 under setting [1] is more than 25 µM. As for `COCc1cc(C)nc2sc(C(=O)Nc3ccccc3C)c(N)c12` [Compound 210, 3-Amino-4-methoxymethyl-6-methyl-thieno[2,3-b]pyridine-2-carboxylic acid o-tolylamide], the EC50 (Vero, 48 h) was more than 25 µM. Take `COCc1cc(C)nc2sc(C(=O)Nc3cc(Cl)ccc3Cl)c(N)c12` [Compound 211, 3-Amino-4-methoxymethyl-6-methyl-thieno[2,3-b]pyridine-2-carboxylic acid (2,5-dichloro-phenyl)-amide]: the EC50 under setting [1] was more than 25 µM. Regarding `Nc1c(C(=O)Nc2ccc([N+](=O)[O-])cc2)sc2nc3c(c(-c4ccco4)c12)CCC3` [Compound 212, 3-Amino-4-furan-2-yl-6,7-dihydro-5H-cyclopenta[b]thieno[3,2-e]pyridine-2-carboxylic acid (4-nitro-phenyl)-amide], under setting [1], the EC50 was more than 25 µM. On the same count and under the same terms, the same measure for `Nc1c(C(=O)Nc2ccc([N+](=O)[O-])cc2)sc2nc3c(c(-c4ccco4)c12)CCCC3` [Compound 213, 3-Amino-4-furan-2-yl-5,6,7,8-tetrahydro-thieno[2,3-b]quinoline-2-carboxylic acid (4-nitro-phenyl)-amide]: more than 25 µM; for `CC1(C)CC(=O)c2cc3c(N)c(C(=O)Nc4ccc([N+](=O)[O-])cc4)sc3nc2C1` [Compound 214, 3-Amino-7,7-dimethyl-5-oxo-5,6,7,8-tetrahydro-thieno[2,3-b]quinoline-2-carboxylic acid (4-nitro-phenyl)-amide]: more than 25 µM.

For the compound `Nc1c(C(=O)Nc2ccc([N+](=O)[O-])cc2)sc2nc3c(cc12)CCC3` [Compound 215, 3-Amino-6,7-dihydro-5H-cyclopenta[b]thieno[3,2-e]pyridine-2-carboxylic acid (4-nitro-phenyl)-amide], the EC50 under setting [1] is more than 25 µM. Take `C=CCc1c(C)nc2sc(C(=O)Nc3ccc(Br)cc3)c(N)c2c1C` [Compound 216, 5-Allyl-3-amino-4,6-dimethyl-thieno[2,3-b]pyridine-2-carboxylic acid (4-bromo-phenyl)-amide]: the EC50 under setting [1] was more than 25 µM.

For the compound `Nc1c(C(=O)Nc2ccccc2)sc2nc3c(cc12)CCCCC3` [Compound 217, 3-Amino-6,7,8,9-tetrahydro-5H-1-thia-10-aza-cyclohepta[f]indene-2-carboxylic acid phenylamide], the EC50 under setting [1] is more than 25 µM. For the compound `Cc1ccccc1NC(=O)c1sc2nc3c(c(-c4ccco4)c2c1N)CCCC3` [Compound 218, 3-Amino-4-furan-2-yl-5,6,7,8-tetrahydro-thieno[2,3-b]quinoline-2-carboxylic acid o-tolylamide], the EC50 (Vero, 48 h) is more than 25 µM. For the compound `CCc1ccccc1NC(=O)c1sc2nc3c(c(-c4ccco4)c2c1N)CCC3` [Compound 219, 3-Amino-4-furan-2-yl-6,7-dihydro-5H-cyclopenta[b]thieno[3,2-e]pyridine-2-carboxylic acid (2-ethyl-phenyl)-amide], the EC50 under setting [1] is more than 25 µM. The same measure, in the same setting: the same measure for `Cc1ccc(-c2c3c(nc4sc(C(N)=O)c(N)c24)CCCCC3)cc1` [Compound 220, 3-Amino-4-p-tolyl-6,7,8,9-tetrahydro-5H-1-thia-10-aza-cyclohepta[f]indene-2-carboxylic acid amide]: more than 25 µM.
